Experimental data taken from PMC10541456, “A phase I, single‐center, open‐label study to investigate the absorption, distribution, metabolism and excretion of encorafenib following a single oral dose of 100 mg [ ^14C] encorafenib in healthy male subjects” (Pharmacology Research & Perspectives, 2023).
Where “and” joins values, the source holds several entries; their conditions need not be identical. Equal values may be shown once. Read-outs that look alike come from different tables or passages of the source.

Key:
Format in all cases: in vivo, human
[1] = Mass balance: excretion of radioactivity in urine and feces (LSC)
Procedure: (§1) This study (ClinicalTrials.gov ID, NCT01436656) was a single‐center, open‐label study to investigate the ADME of encorafenib after a single oral administration of 100 mg (90 μCi) [^14C] encorafenib in healthy male subjects. A total of four evaluable subjects were enrolled and dosed. The study consisted of a screening period, a baseline period, a single dose treatment and a 96 h post‐dose observation period. A safety follow‐up assessment by phone was conducted 30 days after administration of 100 mg (90 μCi) [^14C] encorafenib. Subjects completed an overnight fast of at least 10 h prior to administration of the study drug. Subjects were discharged from the clinical site provided that the subject's recovery of [^14C] encorafenib‐related radioactivity was at least 90% of the administered dose. The study duration period could be prolonged if the subject's recovery of related radioactivity was less than 90% by the fifth‐day post‐treatment or the subject had two consecutive 24‐h combined urine and fecal collections yielding ≥1% of dose.
(§2) Venous blood samples (18 mL/time point) were collected by either direct venipuncture or from an indwelling cannula inserted into a vein of the forearm into tubes containing potassium ethylene diamine tetra acetic acid (K2‐EDTA) at the following times for metabolite characterization, total radioactivity and parent drug analysis: Pre‐dose, 0.5, 1, 1.5, 2, 3, 4, 6, 8, 12, 24, 48, 72, 96, 120 and 144 h post‐dose. Urine samples were collected into pre‐weighed, uniquely labeled containers pre‐dose (before drug administration) and at the following intervals: 0–4, 4–8, 8–24, 24–48, 48–72, 72–96, 96–120 and 120–144 h post‐dose. Feces samples were collected quantitatively into uniquely labeled, polypropylene containers pre‐dose (before drug administration) and individually until 144 h post‐dose. Urine and feces samples were frozen at −20°C and blood samples at −70°C.
Analysis of total radioactivity data in plasma, blood, feces, and urine was performed by Covance Laboratories Inc. All sample combustions were performed in a Model 307 Sample Oxidizer (Packard Instrument Company) and the resulting ^14CO2 was trapped in a mixture of Perma Fluor™ (Perkin Elmer) and Carbo Sorb® (Perkin Elmer). Oxidation efficiency was evaluated on each day of sample combustion by analyzing a commercial radiolabeled standard both directly in a scintillation cocktail and by oxidation. […] EcoLite™(+) scintillation cocktail was used for samples analyzed directly. All samples were analyzed for radioactivity in Model 2900TR or 2910TR liquid scintillation counters (Packard Instrument Company) for at least 5 min or 100 000 counts. […] All samples were analyzed in duplicate or triplicate, as applicable, if sample size allowed. If results from sample replicates (calculated as ^14C disintegrations per minute (dpm)/g sample) differed by more than 10% from the mean value and sample aliquots had radioactivity greater than 200 dpm, the sample was re‐homogenized or remixed and reanalyzed (if the sample size permitted).
Blood samples were mixed and duplicate aliquots of each (approximately 0.4 g) were combusted and analyzed by liquid scintillation […]. Plasma and urine samples were separately mixed and duplicate weighed aliquots of each (approximately 0.4 g for plasma and 0.2 g for urine) were analyzed directly by LSC. […] Feces samples were analyzed individually (samples were not combined by interval) and the weight of each individual sample was recorded. […]

[2] = Total radioactivity PK in plasma
Procedure: as §2
(§3) Analysis of total radioactivity data in plasma, blood, feces, and urine was performed by Covance Laboratories Inc. All sample combustions were performed in a Model 307 Sample Oxidizer (Packard Instrument Company) and the resulting ^14CO2 was trapped in a mixture of Perma Fluor™ (Perkin Elmer) and Carbo Sorb® (Perkin Elmer). Oxidation efficiency was evaluated on each day of sample combustion by analyzing a commercial radiolabeled standard both directly in a scintillation cocktail and by oxidation. […] EcoLite™(+) scintillation cocktail was used for samples analyzed directly. All samples were analyzed for radioactivity in Model 2900TR or 2910TR liquid scintillation counters (Packard Instrument Company) for at least 5 min or 100 000 counts. Each sample was homogenized or mixed before radioanalysis (unless the entire sample was used for analysis). All samples were analyzed in duplicate or triplicate, as applicable, if sample size allowed. If results from sample replicates (calculated as ^14C disintegrations per minute (dpm)/g sample) differed by more than 10% from the mean value and sample aliquots had radioactivity greater than 200 dpm, the sample was re‐homogenized or remixed and reanalyzed (if the sample size permitted).
(§4) Blood samples were mixed and duplicate aliquots of each (approximately 0.4 g) were combusted and analyzed by liquid scintillation […]. Plasma and urine samples were separately mixed and duplicate weighed aliquots of each (approximately 0.4 g for plasma and 0.2 g for urine) were analyzed directly by LSC. Urine volumes provided by the Covance clinical research unit were entered as a weight assuming a specific gravity of 1 g/mL. Feces samples were analyzed individually (samples were not combined by interval) and the weight of each individual sample was recorded. A weighed amount of methanol:water (20:80, v:v; approximately 2 to 3 times the sample weight, such that the homogenate weight:sample weight ratio was approximately 3 to 4) was added and the sample was mixed and homogenized using a probe type homogenizer. Triplicate‐weighed aliquots (approximately 0.2 g) were combusted and analyzed by LSC. The empty treatment vial from each subject was analyzed by adding a weighed amount of methanol to each vial and analyzing duplicate weighed aliquots (approximately 0.5 g) of each extract by LSC. Residual radioactivity recovered from each treatment vial was subtracted from the dose administered to the appropriate subject.
The total radioactivity in blood and plasma was determined by LSC. Nominal sampling time points were used for deriving total radioactivity blood and plasma PK data. […]

[3] = Plasma PK of non-radiolabeled encorafenib; conditions: for Vd/F: read-out: Vz/F
[4] = Safety and tolerability in healthy male subjects
Procedure: as §1

[5] = Total radioactivity PK in whole blood
Procedure: as §2, §3, §4
The total radioactivity in blood and plasma was determined by LSC. Nominal sampling time points were used for deriving total radioactivity blood and plasma PK data. PK parameters (maximum concentration (C max), time to maximum concentration (T max), terminal half‐life(t 1/2) time to last measurable concentration (T last), area under the curve to the last measurable time point (AUClast), area under the curve extrapolated to infinity (AUCinf)) describing blood and plasma total radioactivity were determined using non‐compartmental methods via WinNonlin® Professional (Version 6.3, Pharsight). […]

[6] = mean, through last collection interval (144 h)
[7] = human, plasma, oral, 100 mg, GeoMean (GeoCV%)
[8] = human, plasma, oral, 100 mg, Mean (SD)
[9] = human, plasma, oral, 100 mg, Median (Minimum–Maximum)
[10] = plasma, Median (Minimum–Maximum)
[11] = single 100 mg oral dose, 4 healthy male subjects
[12] = whole blood, Median (Minimum–Maximum)

- Fraction of oral absorption (Fa) ([1]; estimated from urine radioactivity plus fecal metabolites, assumes stability in feces and GI tract): ≥ 86%
- Mass balance (total radioactivity recovered) ([1]; mean ± SD of four subjects, by end of Day 6 (144 h post-dose)): 94.5 ± 0.63 % dose
- Radioactivity recovered in feces [1, 6]: 47.2 % of the dose
- Radioactivity recovered in urine [1, 6]: 47.2 % of the dose and 47 % of the dose
- Overall recovery of radioactivity in the excreta, in all four subjects ([1]; single oral 100 mg [14C] encorafenib, urine + feces, bound holding for each subject): ≥ 93.9% and > 90%
- Cmax, total radioactivity ([2]; Mean (SD)): 2170 (107) ngEq/mL
- T1/2, total radioactivity ([2]; Mean (SD)): 5.1 h and 5.1 (1.30) h
- Cmax, total radioactivity ([2]; Median (Minimum–Maximum)): 2190 (2020–2330) ngEq/mL
- T1/2, total radioactivity ([2]; Median (Minimum–Maximum)): 4.5 (7.1–4.3) h
- Tmax, total radioactivity ([2]; Median (Minimum–Maximum)): 1.3 h
- Variability of apparent oral clearance, this study ([3]; healthy subjects, 100 mg): 37%
- AUC(0-t) ([3]; human, plasma, oral, 100 mg, plasma, GeoMean (GeoCV%), read-out: AUC0-24): 3680 ng·h/mL
- AUC(0-t) ([3]; human, plasma, oral, 100 mg, plasma, GeoMean (GeoCV%), read-out: AUClast): 3720 ng·h/mL
- AUC(0-t) ([3]; human, plasma, oral, 100 mg, plasma, Mean (SD), read-out: AUC0-24): 3850 ng·h/mL
- AUC(0-t) ([3]; human, plasma, oral, 100 mg, plasma, Mean (SD), read-out: AUClast): 3910 ng·h/mL
- Vd/F ([3]; human, plasma, oral, 100 mg, plasma, Mean (SD)): 235 L
- AUC(0-t) ([3]; human, plasma, oral, 100 mg, plasma, Median (Minimum–Maximum), read-out: AUC0-24): 3570 ng·h/mL
- AUC(0-t) ([3]; human, plasma, oral, 100 mg, plasma, Median (Minimum–Maximum), read-out: AUClast): 3600 ng·h/mL
- Vd/F ([3]; human, plasma, oral, 100 mg, plasma, Median (Minimum–Maximum)): 228 L
- AUC(0-inf) [3, 7]: 3750 ng·h/mL
- Cmax [3, 7]: 1040 ng/mL
- half-life [3, 7]: 5.88 h
- Cmax [3, 8]: 1050 ng/mL
- half-life [3, 8]: 6.11 h
- AUC(0-inf) [3, 9]: 3610 ng·h/mL
- Cmax [3, 9]: 1080 ng/mL
- half-life [3, 9]: 6.32 h
- Vd/F ([3]; male, human, plasma, oral, 100 mg, plasma, GeoMean (GeoCV%)): ~226 L
- Tmax ([3]; male, human, plasma, oral, 100 mg, plasma, Median (Minimum–Maximum), read-out: Tmax): 0.77 h
- AUC(0-inf) ([3]; male, human, plasma, po, 100 mg, Mean (SD), n=4, 100 mg oral): 3940 ng·h/mL
- Vz/F ([3]; plasma, GeoMean (GeoCV%)): 226 (32.7) L
- CL/F ([3]; plasma, Mean (SD)): 27.9 (9.15) L/h
- CL/F [3, 10]: 28.4 (17.1–37.6) L/h
- Tmax [3, 10]: 0.767 (0.500–1.00) h
- [blood]:[plasma] AUC ratio for total radioactivity ([5]; mean): 0.58
- [blood]/[plasma] total radioactivity, 1 to 24 h post-dose ([5]; mean (SD)): 0.59 [0.02]
- AUCinf, total radioactivity ([5]; whole blood, Mean (SD)): 8950 (1310) ngEq*h/mL
- Cmax, total radioactivity ([5]; whole blood, Mean (SD)): 1330 (103) ngEq/mL
- T1/2, total radioactivity ([5]; whole blood, Mean (SD)): 4.8 h and 4.8 (0.48) h
- AUCinf, total radioactivity [5, 12]: 8760 (7670–10 600) ngEq*h/mL
- Cmax, total radioactivity [5, 12]: 1320 (1230–1460) ngEq/mL
- T1/2, total radioactivity [5, 12]: 4.6 (4.5–5.5) h
- Tmax, total radioactivity [5, 12]: 1.0 h
Compound: COC(=O)N[C@@H](C)CNc1nccc(-c2cn(C(C)C)nc2-c2cc(Cl)cc(NS(C)(=O)=O)c2F)n1 [encorafenib]
- Grade 2, 3 or 4 adverse events ([4]; single 100 mg oral dose): No grade 2, 3 or 4 AEs were reported
- Subjects with AEs suspected to be related to the study drug [4, 11]: 50.0%
- Subjects with at least one adverse event [4, 11]: 75.0%
- Laboratory evaluations, vital signs, ECG ([4]; single-dose administration): no significant abnormalities
- Overall safety and tolerability ([4]; single-dose administration): safe and well‐tolerated
